Assay results from US20220193310A1, “DUAL AGENT NANOPARTICLE COMPOSITION FOR COATING MEDICAL DEVICES” (THE CLEVELAND CLINIC FOUNDATION, priority 2020, published 2022).
≈ marks a conversion by molar mass, not a printed value.

System: primary human vascular smooth muscle cells
Assay: Inhibition of cell proliferation, CyQUANT NF Cell Proliferation Assay
Assay type: cell-based
Conditions: drug in solution, FIG. 11A, read-out: IC50, dose required to achieve 50% inhibition of cell proliferation
Experimental: Cell viability was determined using CyQUANT™ NF Cell Proliferation Assay kit (Cat #C35006, ThermoFisher Scientific). Fluorescent readings were taken by a microplate reader (Cytation 5, BioTek Instruments Inc., Vermont). […] A) Dose-response effect following treatment of cells with Paclitaxel (PTX) or Sirolimus (SRL) in solution. From the dose-response study, IC50 for each drug was determined. IC50 is the dose that is required to achieve 50% inhibition of cell proliferation with respect to untreated cell.
Determination of Synergistic Effect of Combination Paclitaxel and Sirolimus: The synergistic effect of the combination treatment was determined in vitro using human vascular smooth muscle cells. The IC50 i.e., the drug amount required to inhibit cell proliferation by 50% with respect to the untreated cells was determined using cell viability assay. Drug combination index (CI) was used to determine if the combination treatment is synergistic (CI=<1), additive (CI=1) or antagonistic (CI>1).
Method: Primary human vascular smooth muscle cells (VSMCs) were incubated with different doses of the encapsulated drug(s) for six days. Cell viability was determined using CyQUANT™ NF Cell Proliferation Assay kit (Cat #C35006, ThermoFisher Scientific). Fluorescent readings were taken by a microplate reader (Cytation 5, BioTek Instruments Inc., Vermont).

In the case of `CC(=O)O[C@H]1C(=O)[C@@]2(C)[C@H]([C@H](OC(=O)c3ccccc3)[C@]3(O)C[C@H](OC(=O)[C@H](O)[C@@H](NC(=O)c4ccccc4)c4ccccc4)C(C)=C1C3(C)C)[C@]1(OC(C)=O)CO[C@@H]1C[C@@H]2O` [PTX, Paclitaxel], the IC50 is reported as 1.16 µg/mL (≈ 1.35 µM).
Compound `CO[C@H]1C[C@@H]2CC[C@@H](C)[C@@](O)(O2)C(=O)C(=O)N2CCCC[C@H]2C(=O)O[C@H]([C@H](C)C[C@@H]2CC[C@@H](O)[C@H](OC)C2)CC(=O)[C@H](C)/C=C(\C)[C@@H](O)[C@@H](OC)C(=O)[C@H](C)C[C@H](C)/C=C/C=C/C=C/1C` [SRL, Sirolimus] has an IC50 of 29.1 µg/mL (≈ 31.8 µM).
